This is an account of results in ChEMBL document CHEMBL1122819, “Quinazoline antifolates inhibiting thymidylate synthase: variation of the N10 substituent” (J Med Chem, 1985).

Structures are written as SMILES.

For one test, the system named is L1210. Kind of test: (§1) Growth inhibition was evaluated for L1210 cells in culture. Format: functional. The following applies: Mus musculus, read-out: ID50 (the source's name).
As to `Nc1nc(O)c2cc(CN(CC(=O)O)c3ccc(C(=O)NC(CCC(=O)O)C(=O)O)cc3)ccc2n1` (stereo not given), the IC50 turned out to be 27 µM. As for `Nc1nc(O)c2cc(CN(Cc3cccc(F)c3)c3ccc(C(=O)NC(CCC(=O)O)C(=O)O)cc3)ccc2n1` (stereo not given), the IC50 was more than 200 µM. `Nc1nc(O)c2cc(CN(CC(=O)c3ccccc3)c3ccc(C(=O)NC(CCC(=O)O)C(=O)O)cc3)ccc2n1` (stereo not given): the IC50 turned out to be 100 µM. The same measure, in the same setting: the result for `Nc1nc(O)c2cc(CN(Cc3cnc(O)nc3O)c3ccc(C(=O)NC(CCC(=O)O)C(=O)O)cc3)ccc2n1` (stereo not given) reads 5 µM; that for `N#CCCCN(Cc1ccc2nc(N)nc(O)c2c1)c1ccc(C(=O)NC(CCC(=O)O)C(=O)O)cc1` (stereo not given), more than 300 µM; that for `Nc1nc(O)c2cc(CN(CC3CC3)c3ccc(C(=O)NC(CCC(=O)O)C(=O)O)cc3)ccc2n1` (stereo not given), more than 100 µM. Regarding `CC(C)N(Cc1ccc2nc(N)nc(O)c2c1)c1ccc(C(=O)NC(CCC(=O)O)C(=O)O)cc1` (stereo not given), the IC50 amounted to 400 µM. Consider `Nc1nc(O)c2cc(CN(CCCO)c3ccc(C(=O)NC(CCC(=O)O)C(=O)O)cc3)ccc2n1` (stereo not given), for which the IC50 turned out to be 54 µM. With `Nc1nc(O)c2cc(CN(CCF)c3ccc(C(=O)NC(CCC(=O)O)C(=O)O)cc3)ccc2n1` (stereo not given), the IC50 is 16 µM. With `N#CCN(Cc1ccc2nc(N)nc(O)c2c1)c1ccc(C(=O)NC(CCC(=O)O)C(=O)O)cc1` (stereo not given), the IC50 came out at 5 µM.

As for `NC(=O)CN(Cc1ccc2nc(N)nc(O)c2c1)c1ccc(C(=O)NC(CCC(=O)O)C(=O)O)cc1` (stereo not given), the IC50 came to 87 µM. On to `Nc1nc(O)c2cc(CN(CCC(=O)O)c3ccc(C(=O)NC(CCC(=O)O)C(=O)O)cc3)ccc2n1` (stereo not given), for which the IC50 is more than 270 µM. Take `C#CCN(Cc1ccc2[nH]c(N)nc(=O)c2c1)c1ccc(C(=O)NC(CCC(=O)O)C(=O)O)cc1` (stereo not given): the IC50 stood at 5 µM. On the same count and under the same terms, with `Nc1nc(O)c2cc(CNc3ccc(C(=O)NC(CCC(=O)O)C(=O)O)cc3)ccc2n1` (stereo not given) [DIDEAZAFOLATE] the figure was 5 µM.

The next test concerns L1210. The test is described as §1. The test is classed as functional, Mus musculus.
Settings: not given
What is called Inhibition is the change of the read-out against control, counted positive when it falls. Higher therefore signals a response far below the control. In turn, `N#CCCCN(Cc1ccc2nc(N)nc(O)c2c1)c1ccc(C(=O)NC(CCC(=O)O)C(=O)O)cc1` (stereo not given) yielded an Inhibition of 10%.
